Source: patent US11434242B2, “Dopamine-b-hydroxylase inhibitors” (BIAL-PORTELA & Cª, S.A., priority 2017, dated 2022)
Counter-ions that a name gives are not always drawn.

Target: T1, Dopamine beta hydroxylase (Homo sapiens, UniProt P09172)
T1 construct: 125 μl of plasma; tissue Instituto Português do Sangue Transplantação; host or cells: human plasma from healthy donors
T1 sequence (P09172 40-617 limits assumed): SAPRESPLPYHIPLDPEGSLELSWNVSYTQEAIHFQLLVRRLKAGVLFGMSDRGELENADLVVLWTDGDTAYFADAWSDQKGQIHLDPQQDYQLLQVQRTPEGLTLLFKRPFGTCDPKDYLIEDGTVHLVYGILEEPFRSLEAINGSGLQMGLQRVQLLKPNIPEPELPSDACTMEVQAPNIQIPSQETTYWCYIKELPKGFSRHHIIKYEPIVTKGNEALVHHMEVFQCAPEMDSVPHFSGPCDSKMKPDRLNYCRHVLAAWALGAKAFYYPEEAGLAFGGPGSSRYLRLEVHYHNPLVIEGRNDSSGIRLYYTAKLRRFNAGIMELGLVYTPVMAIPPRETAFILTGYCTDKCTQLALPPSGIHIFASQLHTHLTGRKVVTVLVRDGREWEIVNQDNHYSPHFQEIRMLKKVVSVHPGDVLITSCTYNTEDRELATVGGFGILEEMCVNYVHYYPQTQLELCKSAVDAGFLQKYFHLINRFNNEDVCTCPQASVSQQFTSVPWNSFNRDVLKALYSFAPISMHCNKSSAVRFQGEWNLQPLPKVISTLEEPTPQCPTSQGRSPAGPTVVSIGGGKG
Assay: Dopamine beta hydroxylase activity in human plasma
Type: biochemical
Conditions: for Plasma (0.1 μM), activity in % of control: inhibitor 0.1 μM; for Plasma (0.01 μM), activity in % of control: inhibitor 0.01 μM
Summary of the method: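 Healthy-donor human plasma pre-incubated 10 min at 37° C with compound at final 10, 100 or 1000 nM in pH 5.0 acetate buffer with ascorbate, fumarate, pargyline, N-ethylmaleimide, catalase and copper sulfate. Tyramine substrate then added for 45 min; octopamine formed was isolated by SCX cartridge, periodate-converted and read at 330 nm; activity given as % control.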

Plasma (0.1 μM), activity in % of control	Plasma (1 μM), activity in % of control (inhibitor 1 μM)	Plasma (0.01 μM), activity in % of control	Compound
5.6 % of control		35.9 % of control	Cn1c(CC(=O)O)c2n(c1=S)C[C@@]1(c3c(F)ccc(Cl)c3F)C[C@@H]21 [Example 231, 2-((5aS,6aR)-5a-(3-chloro-2,6-difluorophenyl)-2-methyl-3-thioxo-2,3,5,5a,6,6a-hexahydrocyclopropa[3,4]pyrrolo[1,2-c]imidazol-1-yl)acetic Acid]
29.2 % of control		61.7 % of control	Cl.Cn1c(CCN[C@@H]2CCOC2)c2n(c1=S)C[C@H](c1c(F)ccc(Br)c1F)C2 [Example 256, (S)-6-(3-bromo-2,6-difluorophenyl)-2-methyl-1-(2-(((R)-tetrahydrofuran-3-yl)amino)ethyl)-2,5,6,7-tetrahydro-3H-pyrrolo[1,2-c]imidazole-3-thione hydrochloride]
4.8 % of control		29.9 % of control	CN(C(=O)Cc1c2n(c(=S)n1C)C[C@@]1(c3c(F)ccc(Cl)c3F)C[C@@H]21)C1COC1 [Example 403, 2-((5aS,6aR)-5a-(3-chloro-2,6-difluorophenyl)-2-methyl-3-thioxo-2,3,5,5a,6,6a-hexahydrocyclopropa[3,4]pyrrolo[1,2-c]imidazol-1-yl)-N-methyl-N-(oxetan-3-yl)acetamide]

Second part, the molecule before the results:

Compound	Plasma (0.1 μM), activity in % of control	Plasma (1 μM), activity in % of control (inhibitor 1 μM)	Plasma (0.01 μM), activity in % of control
Cl.Fc1ccc(Cl)cc1[C@]12C[C@H]1c1c(CCN3CCOCC3)[nH]c(=S)n1C2 [Example 174, (5aS,6aR)-5a-(5-chloro-2-fluorophenyl)-1-(2-morpholinoethyl)-5,5a,6,6a-tetrahydrocyclopropa[3,4]pyrrolo[1,2-c]imidazole-3(2H)-thione hydrochloride]	52.7 % of control	8.5 % of control	
F.Fc1ccc(Br)cc1[C@]12C[C@H]1c1c(CCN3CCOCC3)[nH]c(=S)n1C2 [Example 191, (5aS,6aR)-5a-(5-bromo-2-fluorophenyl)-1-(2-morpholinoethyl)-5,5a,6,6a-tetrahydrocyclopropa[3,4]pyrrolo[1,2-c]imidazole-3(2H)-thione hydrofluoride]	26.0 % of control		82.3 % of control
Fc1ccc(Br)c(F)c1[C@@H]1Cc2c(CCN3CCOCC3)[nH]c(=S)n2C1 [Example 195, (S)-6-(3-bromo-2,6-difluorophenyl)-1-(2-morpholinoethyl)-2,5,6,7-tetrahydro-3H-pyrrolo[1,2-c]imidazole-3-thione]	41.7 % of control		77.3 % of control
Fc1cc(F)c(F)c([C@H]2Cc3c(CCCN4CCCC4)[nH]c(=S)n3C2)c1F [Example 219, (R)-1-(3-(pyrrolidin-1-yl)propyl)-6-(2,3,5,6-tetrafluorophenyl)-2,5,6,7-tetrahydro-3H-pyrrolo[1,2-c]imidazole-3-thione hydrochloride]	19.7 % of control		69.9 % of control
